Assay results as given in patent publication EP1117659B1, “SUBSTITUTED 3-CYANOQUINOLINES AS PROTEIN TYROSINE KINASES INHIBITORS” (Wyeth Holdings Corporation, priority 1998, dated 2000).
In brackets after ≈: the same amount, converted by molar mass. Several values for one entry are separate records, joined by “and”; a condition that tells them apart may be missing. Equal entries are not always repeated. Where two headings read alike, the source gives them in different places.

Tests used:
[1] = target: T1, Kinase insert Domain containing Receptor (KDR: the catalytic domain of the VEGF receptor) (Homo sapiens, UniProt P35968); assay: Inhibition of Kinase insert Domain containing Receptor (KDR), radioactive phosphorylation of Glu:Tyr copolymer; assay type: biochemical; settings: IC50, substrate phosphorylation
T1 construct: KDR: the catalytic domain of the VEGF receptor
T1 sequence (P35968 834-1162 limits assumed): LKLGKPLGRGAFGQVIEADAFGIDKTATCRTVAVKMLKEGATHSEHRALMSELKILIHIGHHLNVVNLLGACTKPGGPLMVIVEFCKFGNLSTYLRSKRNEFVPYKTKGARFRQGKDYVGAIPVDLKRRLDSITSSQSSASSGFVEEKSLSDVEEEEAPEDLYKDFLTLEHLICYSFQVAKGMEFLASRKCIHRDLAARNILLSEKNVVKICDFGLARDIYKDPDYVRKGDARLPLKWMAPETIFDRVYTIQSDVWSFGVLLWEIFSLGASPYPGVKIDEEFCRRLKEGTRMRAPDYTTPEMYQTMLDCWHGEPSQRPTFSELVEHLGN
Procedure: In this standard pharmacological test procedure, KDR protein is mixed, in the presence or absence of a inhibitor compound, with a substrate peptide to be phosphorylated (a copolymer of glutamic acid and tyrosine, E:Y :: 4:1) and other cofactors such as Mg^++ and sodium vanadate (a protein tyrosine phosphatase inhibitor) in an appropriate buffer to maintain pH (7.2). ATP and a radioactive tracer (either P^32- or P^33- labeled ATP) is then add to initiate phosphorylation. After incubation, the radioactive phosphate associated with the acid-insoluble fraction of the assay mixture is then quantified as reflection of substrate phosphorylation. […] Multiple entries for a given compound indication it was tested multiple times.

3T3 = assay: Inhibition of Cancer Cell Growth as Measured by Cell Number (Sulforhodamine B); assay type: cell-based; settings: 48 hours exposure; for IC50: Mus musculus, NIH3T3
Procedure: (§1) Human tumor cell lines were plated in 96-well plates (250 µl/well, 1-6 x 10^4 cells/ml) in RPMI 1640 medium, containing 5% FBS (Fetal Bovine Serum). […] After 48 hours exposure to test compounds, cells were fixed with trichloroacetic acid, and stained with Sulforhodamine B. After washing with trichloroacetic acid, bound dye was solubilized in 10 mM Tris base and optical density was determined using plate reader. Under conditions of the assay the optical density is proportional to the number of cells in the well. […] The test procedure is described in details by Philip Skehan et. al, J.Natl. Canc. Inst., 82, 1107-1112 (1990). […] Information about some of the cell lines used in these test procedures is available from the American Type Tissue Collection: Cell Lines and Hybridomas, 1994 Reference Guide, 8th Edition.

3T3/c-erbb2 = assay: as above; assay type: cell-based; settings: 48 hours exposure
Procedure: as §1

SK-BR3 = assay: as above; assay type: cell-based, Human; settings: 48 hours exposure; for IC50: Homo sapiens, SK-BR-3, 48 h
Procedure: as §1

A431 = assay: as above; assay type: cell-based, Human; settings: 48 hours exposure; for IC50: Homo sapiens, A-431, 48 h
Procedure: as §1

SW620 = assay: as above; assay type: cell-based, Human; settings: 48 hours exposure; for IC50: Homo sapiens, SW-620, 48 h
Procedure: as §1

MDA-MB-435 = assay: as above; assay type: cell-based, Human; settings: 48 hours exposure; for IC50: Homo sapiens, MDA-MB-435, 48 h
Procedure: as §1

[2] = target: Epithelial Cell Kinase (ECK) (Homo sapiens, UniProt P29317); assay: Inhibition of Epithelial Cell Kinase (ECK), immobilized biotinylated peptide, HRP anti-phosphotyrosine readout; assay type: biochemical; settings: IC50, substrate phosphorylation
Sequence of Epithelial Cell Kinase (ECK) (P29317 24-976, species assumed): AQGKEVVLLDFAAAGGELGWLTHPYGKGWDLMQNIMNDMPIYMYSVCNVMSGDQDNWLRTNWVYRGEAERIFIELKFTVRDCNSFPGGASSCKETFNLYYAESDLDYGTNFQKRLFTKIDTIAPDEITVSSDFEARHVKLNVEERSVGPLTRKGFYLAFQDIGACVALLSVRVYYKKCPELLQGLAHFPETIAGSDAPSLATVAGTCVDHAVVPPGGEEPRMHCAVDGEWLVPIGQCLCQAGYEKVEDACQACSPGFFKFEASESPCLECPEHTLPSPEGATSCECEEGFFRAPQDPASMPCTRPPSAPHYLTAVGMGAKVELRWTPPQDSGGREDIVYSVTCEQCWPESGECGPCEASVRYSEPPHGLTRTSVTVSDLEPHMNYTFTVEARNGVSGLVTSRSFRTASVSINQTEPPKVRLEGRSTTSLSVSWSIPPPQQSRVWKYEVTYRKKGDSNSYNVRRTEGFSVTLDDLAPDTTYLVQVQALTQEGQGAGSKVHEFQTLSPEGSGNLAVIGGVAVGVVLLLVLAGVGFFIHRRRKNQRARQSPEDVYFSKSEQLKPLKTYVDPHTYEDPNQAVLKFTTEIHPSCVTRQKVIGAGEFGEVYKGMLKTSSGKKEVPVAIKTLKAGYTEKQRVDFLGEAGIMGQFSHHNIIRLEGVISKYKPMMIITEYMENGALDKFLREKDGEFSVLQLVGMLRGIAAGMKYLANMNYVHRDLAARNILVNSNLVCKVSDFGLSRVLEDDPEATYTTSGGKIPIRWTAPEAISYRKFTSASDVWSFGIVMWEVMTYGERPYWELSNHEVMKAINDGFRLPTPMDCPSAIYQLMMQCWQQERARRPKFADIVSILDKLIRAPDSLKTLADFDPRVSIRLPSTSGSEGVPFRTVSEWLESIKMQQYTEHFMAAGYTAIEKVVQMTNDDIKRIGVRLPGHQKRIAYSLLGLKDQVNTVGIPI
Procedure: In this standard pharmacological test procedure, a biotinylated peptide substrate is first immobilized on neutravidin-coated microtiter plates. The test drug, the Epithelial Cell Kinase (ECK), Mg^++, sodium vanadate (a protein tyrosine phosphatase inhibitor), and an appropriate buffer to maintain pH (7.2) are then added to the immobilized substrate-containing microtiter wells. ATP is then added to initiate phosphorylation. After incubation, the assay plates are washed with a suitable buffer leaving behind phosphorylated peptide which is exposed to horse radish peroxidase (HRP)-conjugated anti-phosphotyrosine monoclonal antibody. The antibody-treated plates are washed again and the HRP activity in individual wells is quantified as a reflection of degree of substrate phosphorylation. […] Multiple entries for a given compound indication it was tested multiple times.

[3] = target: Recombinant human MEK 1 (MAPKK) / recombinant human ERK2 (MAPK) (Mek-Erk) (Homo sapiens, UniProt P28482+Q02750); assay: Mitogen Activated Protein Kinase (MAPK) assay, two component coupled Mek-Erk test; assay type: biochemical
[4] = target: T2, epidermal growth factor receptor kinase (EGF-R Kinase, recombinant enzyme; His-tagged cytoplasmic domain of EGFR) (Homo sapiens, UniProt P00533); assay: Inhibition of Epidermal Growth Factor Receptor Kinase (EGF-R) using recombinant enzyme, RR-SRC peptide phosphorylation, 33P-ATP; assay type: biochemical; settings: for inhibition at 0.5 µM: read-out: %Inh @ 0.5 µM; for IC50: recombinant enzyme, 90 min at room temperature
T2 construct: EGFR cDNA encoding amino acids 645 - 1186 preceded by Met-Ala-(His)6; Met-Ala-(His)6 (N); made in house; host or cells: Sf9 insect cells, recombinant baculovirus vHcEGFR52
T2 sequence (P00533 669-1210): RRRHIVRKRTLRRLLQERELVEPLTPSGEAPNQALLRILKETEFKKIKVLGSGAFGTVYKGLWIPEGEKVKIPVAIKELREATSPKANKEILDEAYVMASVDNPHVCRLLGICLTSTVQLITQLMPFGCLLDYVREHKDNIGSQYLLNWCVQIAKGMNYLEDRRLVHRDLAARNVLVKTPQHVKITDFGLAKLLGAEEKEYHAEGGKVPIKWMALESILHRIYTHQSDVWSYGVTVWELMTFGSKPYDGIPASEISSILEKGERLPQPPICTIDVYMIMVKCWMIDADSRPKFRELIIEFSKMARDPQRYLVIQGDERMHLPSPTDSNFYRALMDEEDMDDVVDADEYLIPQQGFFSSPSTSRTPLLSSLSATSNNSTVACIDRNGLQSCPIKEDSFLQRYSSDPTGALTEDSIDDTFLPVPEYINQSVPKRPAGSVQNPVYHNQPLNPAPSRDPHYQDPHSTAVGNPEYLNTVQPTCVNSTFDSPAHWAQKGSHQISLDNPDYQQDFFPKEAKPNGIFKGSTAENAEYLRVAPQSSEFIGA
Procedure: Representative test compounds were evaluated for their ability to inhibit the phosphorylation of the tyrosine residue of a peptide substrate catalyzed by the enzyme epidermal growth factor receptor kinase. The peptide substrate (RR-SRC) has the sequence arg-arg-leu-ile-glu-asp-ala-glu-tyr-ala-ala-arg-gly. The enzyme used in this test procedure is the His-tagged cytoplasmic domain of EGFR. A recombinant baculovirus (vHcEGFR52) was constructed containing the EGFR cDNA encoding amino acids 645 - 1186 preceded by Met-Ala-(His)6. Sf9 cells in 100 mm plates were infected at an moi of 10 pfu/cell and cells were harvested 48 h post infection. A cytoplasmic extract was prepared using 1% Triton X-100 and applied to Ni-NTA column. After washing the column with 20 mM imidazole, HcEGFR was eluted with 250 mM imidazole (in 50 mM Na2HPO4, pH 8.0, 300 mM NaCl). Fractions collected were dialyzed against 10 mM HEPES, pH 7.0, 50 mM NaCl, 10% glycerol, lug/mL antipain and leupeptin and 0.1 mM Pefabloc SC. The protein was frozen in dry ice/methanol and stored -70°C.
Test compounds were made into 10 mg/mL stock solutions in 100% dimethylsulfoxide (DMSO). Prior to experiment, stock solutions were diluted to 500 uM with 100% DMSO and then serially diluted to the desired concentration with HEPES buffer (30 mM HEPES pH 7.4).
For the enzyme reaction, 10 uL of each inhibitor (at various concentrations) were added to each well of a 96-well plate. To this was added 3 uL of enzyme (1:10 dilution in 10mM HEPES, pH 7.4 for final cone. of 1:120). This was allowed to sit for 10 min on ice and was followed by the addition of 5 ul peptide (80 uM final cone.), 10ul of 4X Buffer (Table A), 0.25 uL ^33P-ATP and 12 uL H2O. The reaction was allowed to run for 90 min at room temperature and was followed by spotting the entire volume on to precut P81 filter papers. The filter discs were washed 2X with 0.5% phosphoric acid and radioactivity was measured using a liquid scintillation counter.
The inhibition data for representative compounds of the invention are shown below in TABLE 1. […] The % inhibition of the test compound was determined for at least three different concentrations and the IC50 value was evaluated from the dose response curve. […] CPM(control) is in units of counts per minute and was a number expressing the amount of radiolabled ATP (γ-^33P) incorporated into the RR-SRC peptide substrate by the enzyme after 90 minutes at room temperature in the absence of test compound as measured by liquid scintillation counting. The CPM values were corrected for the background counts produced by ATP in the absence of the enzymatic reaction. […]

Compound | IC50 [1] | IC50 [2] [µM] | IC50 (SK-BR3) [µg/mL] | IC50 (A431) [µg/mL] | IC50 (SW620) [µg/mL] | IC50 (MDA-MB-435) [µg/mL] | IC50 µg/mL 3T3 (3T3) [µg/mL] | IC50 µg/mL 3T3/c-erbb2 (3T3/c-erbb2) [µg/mL] | IC50 µg/mL SK-BR3 (SK-BR3) [µg/mL] | IC50 µg/mL A431 (A431) [µg/mL] | IC50 µg/mL SW620 (SW620) [µg/mL] | IC50 µg/mL MDA-MB-435 (MDA-MB-435) [µg/mL] | IC50 ([3]; read-out: Mek-Erk) | IC50 (3T3) [µg/mL] | IC50 (3T3/c-erbb2) [µg/mL] | IC50 ([3]; read-out: Mek-Erk µM) [µM] | inhibition at 0.5 µM [4] [%] | IC50 [4] [µM]
4-(2,3-Dihydro-benzo[1,4]dioxin-6-ylamino)-6,7-diethoxy-quinoline-3-carbonitrile [Example 105] | 76.6 µM | > 51.1 | – | – | – | – | 0.853 | 0.375 | 0.281 | 0.270 | 0.411 | 0.235 | – | – | – | – | – | –
6,7-Diethoxy-4-(1-oxo-indan-5-ylamino)-quinoline-3-carbonitrile [Example 110] | – | – | – | – | – | – | 0.0923 | 0.0311 | 0.0281 | 0.0244 | 0.0181 | 0.0280 | > 100 µM and 50 µM | – | – | – | – | –
COCCOc1cc2ncc(C#N)c(Nc3ccc4cn[nH]c4c3)c2cc1OCCOC [Example 106, 4-(1H-Indazol-6-ylamino)-6,7-bis-(2-methoxy-ethoxy)-quinoline-3-carbonitrile] | 23.1 µM | > 46.1 | > 5 | 1.96 (≈ 4.52 µM) | > 5 | 2.04 (≈ 4.72 µM) | – | – | – | – | – | – | – | > 5 | > 5 | – | – | –
CCOc1cc2ncc(C#N)c(Nc3ccc4[nH]c(=O)oc(=O)c4c3)c2cc1OCC [Example 109, 4-(2,4-Dioxo-1,4-dihydro-2H-benzo[d][1,3]oxazin-6-ylamino)-6,7-diethoxy-quinoline-3-carbonitrile] | 23.9 µM | > 47.8 | > 5 | > 5 | 2.92 (≈ 6.98 µM) | > 5 | – | – | – | – | – | – | – | > 5 | 4.62 (≈ 11 µM) | > 100 | – | –
CCOc1cc2ncc(C#N)c(Nc3ccc4c(c3)C(=O)OC4)c2cc1OCC [Example 111, 6,7-Diethoxy-4-(3-oxo-1,3-dihydro-isobenzofuran-5-ylamino)-quinoline-3-carbonitrile] | > 77 µM | > 51.4 | > 5 | > 5 | 1.56 (≈ 4.02 µM) | 3.4 (≈ 8.74 µM) | – | – | – | – | – | – | – | > 5 | 3.3 (≈ 8.48 µM) | > 100 | 10 | > 1
CCOc1cc2ncc(C#N)c(Nc3ccc4cn[nH]c4c3)c2cc1OC [Example 115, 7-Ethoxy-4-(indazol-6-ylamino)-6-methoxy-quinoline-3-carbonitrile] | 5.56 µM and > 2.78 µM | > 27.8 | 0.022 (≈ 0.0612 µM) | 0.0368 (≈ 0.102 µM) | 0.0212 (≈ 0.059 µM) | 0.0359 (≈ 0.0999 µM) | – | – | – | – | – | – | 25 µM | 0.344 (≈ 0.957 µM) | 0.0267 (≈ 0.0743 µM) | – | 49 | > 0.5

Now from value to compound, other results behind:

IC50 [1] | IC50 [2] [µM] | IC50 (SK-BR3) [µg/mL] | IC50 (A431) [µg/mL] | IC50 (SW620) [µg/mL] | IC50 (MDA-MB-435) [µg/mL] | Compound | IC50 µg/mL 3T3 (3T3) [µg/mL] | IC50 µg/mL 3T3/c-erbb2 (3T3/c-erbb2) [µg/mL] | IC50 µg/mL SK-BR3 (SK-BR3) [µg/mL] | IC50 µg/mL A431 (A431) [µg/mL] | IC50 µg/mL SW620 (SW620) [µg/mL] | IC50 µg/mL MDA-MB-435 (MDA-MB-435) [µg/mL] | IC50 ([3]; read-out: Mek-Erk) | IC50 (3T3) [µg/mL] | IC50 (3T3/c-erbb2) [µg/mL] | IC50 ([3]; read-out: Mek-Erk µM) [µM] | inhibition at 0.5 µM [4] [%] | IC50 [4] [µM]
> 71.9 µM | > 47.9 | > 5 | > 5 | > 5 | > 5 | CCOc1cc2ncc(C#N)c(Nc3ccc4c(=O)[nH][nH]c(=O)c4c3)c2cc1OCC [Example 107, 4-(1,4-Dioxo-1,2,3,4-tetrahydro-phthalazin-6-ylamino)-6,7-diethoxy-quinoline-3-carbonitrile] | – | – | – | – | – | – | – | > 5 | > 5 | – | – | –
> 80.3 µM | > 2.68 | 0.294 (≈ 0.787 µM) | 0.342 (≈ 0.916 µM) | < 0.0005 | 0.352 (≈ 0.943 µM) | CCOc1cc2ncc(C#N)c(Nc3ccc4c(c3)CCC4)c2cc1OCC [Example 108, 6,7-Diethoxy-4-(indan-5-ylamino)-quinoline-3-carbonitrile] | – | – | – | – | – | – | – | 0.525 (≈ 1.41 µM) | 0.0198 (≈ 0.053 µM) | – | – | –
> 71.2 µM | > 47.5 | 0.336 (≈ 0.797 µM) | 0.257 (≈ 0.61 µM) | 0.146 (≈ 0.346 µM) | 0.0033 (≈ 0.00783 µM) | CCOc1cc2ncc(C#N)c(Nc3ccc4c(c3)S(=O)(=O)C=C4)c2cc1OCC [Example 112, 4-(1,1-Dioxo-1H-benzo[b]thiophen-6-ylamino)-6,7-diethoxy-quinoline-3-carbonitrile] | – | – | – | – | – | – | > 100 µM | 0.392 (≈ 0.93 µM) | 0.251 (≈ 0.596 µM) | – | – | –
8.36 µM and > 2.79 µM | > 27.9 | 2.09 (≈ 5.83 µM) | 0.786 (≈ 2.19 µM) | 4.31 (≈ 12 µM) | 2.63 (≈ 7.31 µM) | CCOc1cc2c(Nc3ccc4cn[nH]c4c3)c(C#N)cnc2cc1OC [Example 126, 6-Ethoxy-4-(1H-indazol-6-ylamino)-7-methoxyquinoline-3-carbonitrile] | – | – | – | – | – | – | > 100 µM | 3.22 (≈ 8.96 µM) | 4.8 (≈ 13.4 µM) | – | – | 0.45
